In assay [1] the target is L-xylulose reductase (Homo sapiens) (UniProt Q7Z4W1). In words: Protein interaction energy by using binding affinity towards human L-xylulose reductase enzyme.
For assay [2] the target is unchanged.

Structures are written as SMILES.

L-xylulose reductase (Homo sapiens), sequence (Q7Z4W1 whole entry): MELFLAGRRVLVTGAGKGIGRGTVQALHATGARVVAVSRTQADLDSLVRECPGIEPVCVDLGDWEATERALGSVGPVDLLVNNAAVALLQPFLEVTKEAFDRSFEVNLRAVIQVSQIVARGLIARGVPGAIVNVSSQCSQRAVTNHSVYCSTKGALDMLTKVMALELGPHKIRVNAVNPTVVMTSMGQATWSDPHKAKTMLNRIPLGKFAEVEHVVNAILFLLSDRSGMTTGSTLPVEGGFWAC

`CCC(C(=O)O)C(=O)O` gave a Protein interaction energy in assay [1] of -86.7 kcal/M.
In assay [2], `CCCc1ccc(O)cc1` displayed a Protein interaction energy of -26.9 kcal/M.
Same read-out and setting: the same measure for `CO[PH](O)(O)OCC(=O)O`: -114 kcal/M.
On the same count and under the same terms, the same measure for `CCC(CO)C(=O)O` (stereo not given): -41.4 kcal/M; for `CCC(O)C(=O)O` (stereo not given): -38.4 kcal/M.
Same read-out and setting: the same measure for `O=C(O)CC(C(=O)O)C(=O)O`: -163 kcal/M; for `CCCC(=O)O`: -40.4 kcal/M.
With `O=C(O)CCC(=O)O`, the Protein interaction energy in assay [2] is -114 kcal/M.
On the same count and under the same terms, the same measure for `CCC(C(=O)O)c1ccc(O)cc1` (stereo not given): -51.6 kcal/M; for `CCCOP(=O)(O)O`: -87.4 kcal/M.
